Assay results as given in US6927229B2 (dated 2005).

Row | melting point [°C] | Structure (SMILES)
1 | 155 to 156 | O=C1O[C@@H](CNC(=S)C(F)F)CN1c1ccc(N2CC[S+]([O-])CC2)cc1
2 | 168 to 169 | O=C1O[C@@H](CNC(=S)C(F)F)CN1c1ccc(C2CCS(=O)(=O)CC2)c(F)c1
3 | 126 to 128 | O=C1O[C@@H](CNC(=S)C(F)F)CN1c1cc(F)c(C2CCS(=O)(=O)CC2)c(F)c1
4 | 146 to 147 | O=C1O[C@@H](CNC(=S)C(F)F)CN1c1ccc(N2CCS(=O)(=O)CC2)c(F)c1

Continued, compound first:

Row | Structure (SMILES) | melting point [°C]
5 | O=C1O[C@@H](CNC(=S)C(F)F)CN1c1cc(F)c(N2CCS(=O)(=O)CC2)c(F)c1 | 88 to 90
6 | O=C1O[C@@H](CNC(=S)C(F)F)CN1c1ccc(C2CCS(=O)(=O)CC2)cc1 | 174 to 176
7 | O=C1O[C@@H](CNC(=S)C(F)F)CN1c1ccc(N2CCCS(=O)(=O)CC2)c(F)c1 | 128 to 130
8 | O=C1O[C@@H](CNC(=S)C(F)F)CN1c1ccc(N2CCS(=O)(=O)CC2)cc1 | 126 to 127
